Assay results reported in patent publication US20040198731A1, “Aminoalkyl-substituted aromatic bicyclic compounds, methods for their preparation and their use as pharmaceuticals” (Aventis Pharma Deutschland GmbH, priority 2001, published 2004).

biological target: T1, human MCH receptor (Homo sapiens, UniProt Q99705); assay: Functional measurement of cellular calcium flow (FLIPR) in recombinant HEK293 cells expressing human MCH receptor; format: cell-based; details: cellular assay, calcium flow after addition of agonist (MCH), HEK293 (PEAK Stable Cells) expressing human MCH receptor
T1 construct: expressed in transfected cells
T1 sequence (Q99705 whole entry): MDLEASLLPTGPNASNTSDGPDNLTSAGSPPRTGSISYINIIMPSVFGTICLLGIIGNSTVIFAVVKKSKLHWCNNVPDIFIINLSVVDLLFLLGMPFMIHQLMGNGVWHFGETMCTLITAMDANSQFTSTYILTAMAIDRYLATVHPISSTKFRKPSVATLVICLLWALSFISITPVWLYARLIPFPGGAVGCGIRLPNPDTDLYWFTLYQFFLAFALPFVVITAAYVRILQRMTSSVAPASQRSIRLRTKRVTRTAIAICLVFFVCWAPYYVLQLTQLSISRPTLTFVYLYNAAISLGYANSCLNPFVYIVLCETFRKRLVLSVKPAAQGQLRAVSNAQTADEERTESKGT
Text: In two simultaneously published articles in Nature (Nature, 400:261-264, 1999; Nature, 400:265-269, 1999, see enclosure), two groups separately described a highly specific receptor for melanin-concentrating hormone (MCH). MCH takes over important functions in the control of food intake. Compounds acting on the MCH receptor therefore have anorectic action and are suitable for the treatment of obesity. The test for anorectic action of the inventive compounds of formula I was therefore carried out as follows.
Functional measurements for determination of IC50
Cloning of the cDNA for human MCH receptor, preparation of a recombinant HEK293 cell line expressing human MCH receptor and functional measurements with said recombinant cell line were carried out according to the description by Audinot et al. (J. Biol. Chem., 276, 13554-13562, 2001). In contrast to the reference, however, plasmid pEAK8 from EDGE Biosystems (USA) was used for constructing the expression vector. A transformed HEK cell line named “PEAK Stable Cells” (likewise from EDGE Biosystems) served as host for transfection. The functional measurements of cellular calcium flow, after addition of agonists (MCH), in the presence of the ligand of the invention was carried out with the aid of the FLIPR instrument from Molecular Devices (USA), using the manufacturer's protocols.

Row | SMILES | IC50
1 | CN(C)CCn1ccc2cc(NC(=O)Nc3ccc(OCc4ccccc4)cc3)ccc21 [Example 80, 1-(4-Benzyloxyphenyl)-3-[1-(2-di-methylaminoethyl)-1H-in-dol-5-yl]urea] | 3360 nM
2 | Cn1c(CN2CCCC2)cc2cc(NC(=O)Nc3ccc(Oc4ccccc4)cc3)ccc21 [Example 3, 1-(1-Methyl-2-pyrrolidin-1-ylmethyl-1H-indol-5-yl)-3-(4-phenoxyphenyl)urea] | 290 nM
3 | Cc1nc2cc(NC(=O)Nc3ccc(Oc4ccccc4)cc3)ccc2n1CCN(C)C [Example 10, 1-[2-Methyl-1-(2-dimethylaminoethyl)-1H-benzoimidazol-5-yl]-3-(4-phenoxyphenyl)urea] | 110 nM
4 | CN(C)CCn1ccc2cc(NC(=O)Nc3ccc(Oc4cccc(C(F)(F)F)c4)cc3)ccc21 [Example 86, 1-[1-(2-Di-methylaminoethyl)-1H-in-dol-5-yl]-3-[4-(3-tri-fluoromethyl-phenoxy)phenyl]urea] | 2780 nM
5 | CCCCc1ccc(NC(=O)Nc2ccc3c(ccn3CCN(C)C)c2)cc1 [Example 71, 1-(4-Butylphenyl)-3-[1-(2-di-methylaminoethyl)-1H-in-dol-5-yl]urea] | 2650 nM
6 | CCc1nc2cc(NC(=O)Nc3ccc(Oc4ccccc4)cc3)ccc2n1CCN1CCCC1 [Example 14, 1-[2-Ethyl-1-(2-pyrrolidin-1-ylethyl)-1H-benzoimidazol-5-yl]-3-(4-phenoxyphenyl)urea] | 300 nM
7 | COc1cc(Nc2ccccc2)ccc1NC(=O)Nc1ccc2c(ccn2CCN(C)C)c1 [Example 79, 1-[1-(2-Dimethyl-aminoethyl)-1H-indol-5-yl]-3-(2-meth-oxy-4-phenyl-aminophenyl)-urea] | 2130 nM
8 | Cc1nc2cc(NC(=O)Nc3ccc(OC(C)C)cc3)ccc2n1CCN1CCOCC1 [Example 8, 1-(4-Isopropoxyphenyl)-3-[2-methyl-1-(2-morpholin-4-yl-ethyl)-1H-benzoimidazol-5-yl]urea] | 1900 nM
9 | Cc1ccccc1Oc1ccc(NC(=O)Nc2ccc3c(ccn3CCN(C)C)c2)cc1 [Example 108, 1-[1-(2-Di-methylaminoethyl)-1H-in-dol-5-yl]-3-(4-o-tolyl-oxyphenyl)urea] | 430 nM
10 | Cc1nc2cc(NC(=O)Nc3ccc(Oc4ccccc4)cc3)ccc2n1CCN1CCCC1 [Example 9] | 100 nM
11 | CC(C)COc1ccc(NC(=O)Nc2ccc3c(ccn3CCN(C)C)c2)cc1 [Example 72, 1-[1-(2-Dimethyl-aminoethyl)-1H-in-dol-5-yl]-3-(4-iso-butoxyphenyl)urea] | 320 nM
12 | O=C(Nc1ccc(Oc2ccccc2)cc1)Nc1ccc2c(c1)ncn2CCN1CCCC1 [Example 11, 1-(4-Phenoxyphenyl)-3-[1-(2-pyrrolidin-1-ylethyl)-1H-benzoimidazol-5-yl]urea] | 140 nM
13 | CC(C)COc1ccc(NC(=O)Nc2ccc3c(ccn3CCN(C)C)c2)c(F)c1 [Example 63, 1-[1-(2-Dimethyl-aminoethyl)-1H-in-dol-5-yl]-3-(2-fluoro-4-iso-butoxyphenyl)urea] | 570 nM
14 | CC(C)COc1ccc(NC(=O)Nc2ccc3c(ccn3CCN(C)C)c2)cc1F [Example 65, 1-[1-(2-Dimethyl-aminoethyl)-1H-in-dol-5-yl]-3-(3-fluoro-4-iso-butoxyphenyl)urea] | 500 nM
15 | CCCCOc1ccc(NC(=O)Nc2ccc3c(ccn3CCN(C)C)c2)cc1 [Example 2, 1-(4-Butoxyphenyl)-3-[1-(2-dimethylaminoethyl)-1H-indol-5-yl]urea] | 150 nM
16 | CN(C)CCn1c(-c2ccccc2)nc2cc(NC(=O)Nc3ccc(Oc4ccccc4)cc3)ccc21 [Example 13, 1-[1-(2-Dimethylaminoethyl)-2-phenyl-1H-benzoimidazol-5-yl]-3-(4-phenoxyphenyl)urea] | 2500 nM
17 | COc1cccc(Oc2ccc(NC(=O)Nc3ccc4c(ccn4CCN(C)C)c3)cc2)c1 [Example 109, 1-[1-(2-Dimethyl-aminoethyl)-1H-indol-5-yl]-3-[4-(3-meth-oxyphenoxy)-phenyl]urea] | 1290 nM
18 | CN(C)CCn1ccc2cc(NC(=O)Nc3ccc(-c4ccc(F)cc4)cc3)ccc21 [Example 81, 1-[1-(2-Di-methylaminoethyl)-1H-in-dol-5-yl]-3-(4′-fluoro-biphenyl-4-yl)urea] | 2690 nM

Second part, the compound after the results:

Row | IC50 | SMILES
19 | 330 nM | CCN1CCCC1Cn1c(C)nc2cc(NC(=O)Nc3ccc(Oc4ccccc4)cc3)ccc21 (stereo not shown) [Example 16, 1-[1-(1-Ethylpyrrolidin-2-ylmethyl)-2-methyl-1H-benzoimidazol-5-yl]-3-(4-phenoxy-phenyl)urea]
20 | 500 nM | Cc1nc2cc(NC(=O)Nc3ccc(OC(C)C)cc3)ccc2n1CCN(C)C [Example 5, 1-[1-(2-Dimethylaminoethyl)-2-methyl-1H-benzoimidazol-5-yl]-3-(4-isopropoxyphenyl)urea]
21 | 4420 nM | CN(C)CCn1ccc2cc(NC(=O)Nc3ccc(N4CCCC4)cc3)ccc21 [Example 22, 1-[1-(2-Di-methylaminoethyl)-1H-in-dol-5-yl]-3-(4-pyr-rolidin-1-ylphe-nyl)urea]
22 | 1000 nM | CN(C)CCn1ccc2cc(NC(=O)Nc3ccc(Oc4ccccc4Cl)cc3)ccc21 [Example 105, 1-[4-(2-Chloro-phenoxy)-phenyl]-3-[1-(2-di-methylaminoethyl)-1H-in-dol-5-yl]urea]
23 | 700 nM | CN(C)CCn1ccc2cc(NC(=O)Nc3ccc(Oc4cccc(Cl)c4)cc3)ccc21 [Example 77, 1-[4-(3-Chloro-phenoxy)-phe-nyl]-3-[1-(2-dimethyl-aminoethyl)-1H-in-dol-5-yl]urea]
24 | 140 nM | CN(C)CCn1ccc2cc(NC(=O)Nc3ccc(Oc4cccnc4)cc3)ccc21 [Example 73, 1-[1-(2-Dimethyl-aminoethyl)-1H-in-dol-5-yl]-3-[4-(py-ridin-3-yloxy)phe-nyl]urea]
25 | 2140 nM | CN(C)Cc1nc2cc(NC(=O)Nc3ccc(Oc4ccccc4)cc3)ccc2[nH]1 [Example 17, 1-(2-Dimethylaminomethyl-1H-benzoimidazol-5-yl)-3-(4-phenoxyphenyl)urea]
26 | 1000 nM | Cc1cccc(Oc2ccc(NC(=O)Nc3ccc4c(ccn4CCN(C)C)c3)cc2)c1 [Example 107, 1-[1-(2-Di-methylaminoethyl)-1H-in-dol-5-yl]-3-(4-m-tolyl-oxyphenyl)urea]
27 | 1040 nM | Cc1c(C)n(CCN(C)C)c2ccc(NC(=O)Nc3ccc(Oc4ccccc4)cc3)cc12 [Example 18, 1-[1-(2-Dimethylaminoethyl)-2,3-dimethyl-1H-indol-5-yl]-3-(4-phenoxyphenyl)urea]
28 | 700 nM | Cc1cc2cc(NC(=O)Nc3ccc(Oc4ccccc4)cc3)ccc2n1CCN(C)C [Example 19, 1-[1-(2-Dimethylaminoethyl)-2-methyl-1H-indol-5-yl]-3-(4-phenoxyphenyl)urea]
29 | 400 nM | Cc1ccc(Oc2ccc(NC(=O)Nc3ccc4c(ccn4CCN(C)C)c3)cc2)cc1 [Example 84, 1-[1-(2-Di-methylaminoethyl)-1H-in-dol-5-yl]-3-(4-p-tolyl-oxyphenyl)urea]
30 | 2340 nM | CCN1CCCC1Cn1c(C)nc2cc(NC(=O)Nc3ccc(OC(C)C)cc3)ccc21 (stereo not shown) [Example 6, 1-[1-(1-Ethylpyrrolidin-2-ylmethyl)-2-methyl-1H-benzoimidazol-5-yl]-3-(4-isopropoxyphenyl)urea]
31 | 860 nM | CN(C)CCn1ccc2cc(NC(=O)Nc3ccc(N4CC=CCC4)cc3)ccc21 [Example 24, 1-[4-(3,6-Dihydro-2H-py-ridin-1-yl)phenyl]-3-[1-(2-di-methylaminoethyl)-1H-in-dol-5-yl]urea]
